This is an account of results in US9006139B2, “Active compound combinations” (Bayer Intellectual Property GmbH, priority 2009, dated 2015).

Holding throughout (format): in vivo
Experiment [1] deals with Alternaria solani. Kind of experiment: Alternaria test (tomatoes)/protective. The settings on record: Alternaria solani, 72 h, Table E, read-out: Efficacy in % found; for pest or weed control at 50 ppm: 50 ppm a.i. In short, it runs like this: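 Protective test: young tomato plants were sprayed with compound in an acetone/dimethylacetamide emulsifier formulation diluted with water. After drying, plants were inoculated with Alternaria solani spores and kept at ~20 °C and 100% relative humidity. Scored 3 days post-inoculation as % efficacy, where 0% equals untreated control and 100% means no disease.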

For experiment [2], the system named is Septoria tritici. Description: Septoria tritici-test (wheat)/preventive. The settings on record: Table H. How it is done: (§1) Solvent: 49 parts by weight of n,n-dimethylacetamid
(§2) Emulsifier: 1 part by weight of alkylaryl polyglycol ether
(§3) To produce a suitable preparation of active compound, 1 part by weight of active compound or active compound combination is mixed with the stated amounts of solvent and emulsifier, and the concentrate is diluted with water to the desired concentration. To test for preventive activity, young plants are sprayed with the preparation of active compound or active compound combination at the stated rate of application. After the spray coating has been dried, the plants are sprayed with a spore suspension of Septoria tritici. The plants remain for 48 hours in an incubation cabinet at approximately 20° C. and a relative atmospheric humidity of approximately 100% and afterwards for 60 hours at approximately 15° C. in a translucent incubation cabinet at a relative atmospheric humidity of approximately 100%. The plants are placed in the greenhouse at a temperature of approximately 15° C. and a relative atmospheric humidity of approximately 80%. The test is evaluated 21 days after the inoculation. 0% means an efficacy which corresponds to that of the untreated control, while an efficacy of 100% means that no disease is observed.

Experiment [3] deals with Fusarium graminearum. The conditions noted are these: Table L; 500 ppm a.i.
Experiment [4] has as its system Puccinia triticina. Kind of experiment: Puccinia triticina-test (wheat)/preventive. The conditions noted are these: Table M; 500 ppm a.i. The protocol: as §1, §2
as §3, with “Puccinia triticina.” for “Septoria tritici.”, “approximately” for “approximately 100% and afterwards for 60 hours at approximately 15° C. in a translucent incubation cabinet at a relative atmospheric humidity of approximately”, “20°” for “15°”, “8” for “21”

Experiment [5] has as its system Botrytis cinerea. Description: Botrytis test (beans)/protective. The conditions noted are these: Botrytis cinerea, 48 h, Table F, read-out: Efficacy in % found; for pest or weed control at 25 ppm: 25 ppm a.i.; for pest or weed control at 50 ppm: 50 ppm a.i. In short, it runs like this: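 Young bean plants were sprayed with compound in acetone/dimethylacetamide plus emulsifier diluted in water; once dry, each leaf got 2 agar pieces bearing Botrytis cinerea. Plants were held dark at 20 °C and 100% relative humidity, and lesion size was scored after 2 days as efficacy, 0% matching untreated control and 100% meaning no disease.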

Where two headings read alike, the source gives them in different places.

As for `Cn1c(=O)c2sc3c(=O)n(C)c(=O)c3sc2c1=O` [(I-1), 2,6-dimethyl-1H,5H-[1,4]dithiino[2,3-c:5,6-c′]dipyrrole-1,3,5,7(2H,6H)-tetrone], the pest or weed control at 12.5 ppm in experiment [1] (test 1, 12.5 ppm a.i.) was 0%; in experiment [5] (test 3, 12.5 ppm a.i.) it was 0%. In addition, the pest or weed control at 50 ppm in experiment [1] (test 1) came to 45%; in experiment [1] (test 2), 50%; in experiment [5] (test 1), 45%; in experiment [5] (test 2), 40%; in experiment [5] (test 3), 58%. Further, the “Efficacy in % found” value is given as 30% in experiment [2] (500 ppm a.i.), 50% in experiment [2] (1000 ppm a.i.), 0% in experiment [3] and 10% in experiment [4]. Further, the pest or weed control at 25 ppm in experiment [5] (test 1) and in experiment [5] (test 2) was 0% in each case.
